Holding throughout (assay type): biochemical
One assay addresses Cathepsin B (Homo sapiens, UniProt P07858). The assay can be described thus: Cathepsin B inhibition assay, selectivity for cathepsin S over cathepsin B. Particulars: ratio of cathepsin B inhibition constant to cathepsin S inhibition constant. As to the method:
The optimal substrate for cathepsin B, acetyl-histidine-proline-valine-lysine-amino carbamoyl coumarin, was identified from screening a combinatorial library of fluorogenic peptide substrates (Harris, J. L., B. J. Backes, et al., Proc Natl Acad Sci US A 2000, 97(14), 7754-9). Kinetic measurements are performed in a total reaction volume of 30 μl in 384-well microtiter plates. Cathepsin B, at a final concentration of 1.5 nM (active site), is incubated with the compounds at twelve varying concentrations in a buffer containing 100 mM NaAc (pH5.5), 1 mM EDTA, 100 mM NaCl, 0.01% Brij-35 for 20 minutes at room temperature. Control reactions in the absence of inhibitor are performed in replicates of 24. The reactions are initiated by adding the substrate, acetyl-histidine-proline-valine-lysine-amino carbamoyl coumarin, to a final concentration of 10 μM. The rate of substrate hydrolysis is measured by monitoring the increase in fluorescence at an excitation wavelength of 380 nm and an emission wavelength of 450 nm that results from cleavage of the aniline bond in the substrate by the enzyme. The apparent inhibition constants for the compounds are determined from the enzyme progress curves (Kuzmic, P., K. C. Elrod, et al., Anal Biochem 2000, 286(1), 45-50) and are then used to calculate the inhibition constants for competitive inhibitors.
(§1) Selectivity for cathepsin S in the presence of cathepsin isozymes was determined by the ratio of the cathepsin isozyme inhibition constant of a compound of the present invention to the cathepsin S inhibition constant of the same compound. Preferred compounds of the present invention selective for cathepsin S have ratios of greater than 10. More preferred compounds of the present invention selective for cathepsin S have ratios of greater than 100. Most preferred compounds of the present invention selective for cathepsin S have ratios of greater than 1000.

The target of a further assay is T1, Caspase 1 (Homo sapiens, UniProt P29466).
T1 sequence (P29466 120-297 limits assumed): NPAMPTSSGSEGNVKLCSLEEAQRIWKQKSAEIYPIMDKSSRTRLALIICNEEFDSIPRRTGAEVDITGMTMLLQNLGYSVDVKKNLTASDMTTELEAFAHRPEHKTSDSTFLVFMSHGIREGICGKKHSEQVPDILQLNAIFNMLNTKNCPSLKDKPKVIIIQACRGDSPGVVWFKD
T1 sequence (P29466 317-404 limits assumed): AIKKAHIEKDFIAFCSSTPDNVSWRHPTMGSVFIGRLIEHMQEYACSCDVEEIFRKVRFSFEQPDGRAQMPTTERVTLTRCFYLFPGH
Put plainly: Inhibition Assay for Caspase 1. The conditions noted are these: Caspase-1 inhibition constant; pH 7.4; read-out: Ki Cas-1. As to the method: (§2) The widely used substrate for caspase 1, acetyl-tryptophan-glutamate-histidine-spartic acid-amino carbamoyl coumarin, was used. Kinetic measurements are performed in a total reaction volume of 30 μl in 384-well microtiter plates. Caspase 1, at a final concentration of 0.2-1 nM (active site), is incubated with the compounds at twelve varying concentrations in a buffer containing 20 mM Hepes (pH 7.4), 1 mM EDTA, 100 mM NaCl, 0.1% CHAPS, 10% sucrose, 10 mM DTT for 20 minutes at room temperature. Control reactions in the absence of inhibitor are performed in replicates of 12. The reactions are initiated by adding the substrate to a final concentration of 4 μM. The rate of substrate hydrolysis is measured by monitoring the increase in fluorescence at an excitation wavelength of 380 nm and an emission wavelength of 450 nm that results from cleavage of the aniline bond in the substrate by the enzyme. The apparent inhibition constants for the compounds are determined from the enzyme progress curves (Kuzmic, Elrod et al. 2000) and are then used to calculate the inhibition constants for competitive inhibitors (Km=8 μM).

In a further assay the target is Cathepsin L (Homo sapiens, UniProt P07711). Put plainly: Cathepsin L inhibition assay, selectivity for cathepsin S over cathepsin L. The conditions noted are these: ratio of cathepsin L inhibition constant to cathepsin S inhibition constant. How it is done: The optimal substrate for cathepsin L, acetyl-histidine-lysine-phenylalanine-lysine-amino carbamoyl coumarin, was identified from screening a combinatorial library of fluorogenic peptide substrates (Harris, J. L., B. J. Backes, et al.; Proc Natl Acad Sci USA 2000, 97(14), 7754-9). Kinetic measurements are performed in a total reaction volume of 30 μl in 384-well microtiter plates. Cathepsin L, at a final concentration of 0.1 nM (active site), is incubated with the compounds at twelve varying concentrations in a buffer containing 100 mM NaAc (pH5.5), 1 mM EDTA, 100 mM NaCl, 0.01% Brij-35 for 20 minutes at room temperature. Control reactions in the absence of inhibitor are performed in replicates of 24. The reactions are initiated by adding the substrate, acetyl-histidine-lysine-phenylalanine-lysine-amino carbamoyl coumarin, to a final concentration of 20 μM. The rate of substrate hydrolysis is measured by monitoring the increase in fluorescence at an excitation wavelength of 380 nm and an emission wavelength of 450 nm that results from cleavage of the aniline bond in the substrate by the enzyme. The apparent inhibition constants for the compounds are determined from the enzyme progress curves (Kuzmic, P., K. C. Elrod, et al., Anal Biochem 2000, 286(1), 45-50) and are then used to calculate the inhibition constants for competitive inhibitors.
as §1

A further assay deals with T2, Caspase 3 (Homo sapiens, UniProt P42574).
T2 sequence (P42574 29-175 limits assumed): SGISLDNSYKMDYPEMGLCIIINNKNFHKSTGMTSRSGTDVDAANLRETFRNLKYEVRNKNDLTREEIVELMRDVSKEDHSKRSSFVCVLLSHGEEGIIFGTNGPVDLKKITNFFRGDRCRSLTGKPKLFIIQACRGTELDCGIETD
T2 sequence (P42574 176-277 limits assumed): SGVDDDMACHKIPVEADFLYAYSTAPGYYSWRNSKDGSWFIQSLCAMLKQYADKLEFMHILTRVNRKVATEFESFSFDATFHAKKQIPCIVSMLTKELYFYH
Put plainly: Inhibition Assay for Caspase 3. Particulars: Caspase-3 inhibition constant; pH7.4; read-out: Ki Cas-3. As to the method:
as §2, with “for caspase 3, acetyl-aspartate-glutamate-valine-aspartic acid-amino carbamoyl” for “for caspase 1, acetyl-tryptophan-glutamate-histidine-spartic acid-amino carbamoyl”, “plates. Caspase 3, at a” for “plates. Caspase 1, at a”, “mM Hepes (pH7.4), 1 mM” for “mM Hepes (pH 7.4), 1 mM”, “concentration of 2 μM. The” for “concentration of 4 μM. The”, “competitive inhibitors (Km=9.71 μM).” for “competitive inhibitors (Km=8 μM).”

Broadly, the Ki is the equilibrium dissociation constant of an inhibitor or competing ligand from its target.

Cathepsin L, sequence (P07711 114-333, species assumed): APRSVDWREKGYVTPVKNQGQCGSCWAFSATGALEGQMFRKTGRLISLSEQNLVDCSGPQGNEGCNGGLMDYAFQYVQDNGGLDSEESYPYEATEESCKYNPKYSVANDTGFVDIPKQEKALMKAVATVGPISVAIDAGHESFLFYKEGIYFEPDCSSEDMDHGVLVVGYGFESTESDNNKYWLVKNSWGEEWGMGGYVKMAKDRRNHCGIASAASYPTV

With `O=C1C[C@H](NC(=O)O[C@@H](CC2CCCCC2)C(=O)N2CCOCC2)C(O)O1` (stereo partly drawn) [Example 10, (3S)-[2-cyclohexyl-(1S)-(morpholin-4-carbonyl)-ethoxycarbonylamino]-4-oxo-butyric acid], the “Selectivity for Cat. S over Cat. B” value on Cathepsin B is on record as “+++ (+++, >1000)”. The Ki on Caspase 1 and on Caspase 3 was greater than 100 µM each time. Besides, the “Selectivity for Cat. S over Cat. L” value at Cathepsin L is “+++ (+++, >1000)”.
Take `O=C1C[C@H](NC(=O)[C@@H](CC(=O)N2CCOCC2)CC2CCCCC2)C(O)O1` (stereo partly drawn) [Example 6, (3S)-{(2R)-Cyclohexylmethyl-4-morpholin-4-yl-4-oxo-butyrylamino}-4-oxo-butyric acid]: the “Selectivity for Cat. S over Cat. B” value at Cathepsin B is “+++ (+++, >1000)”. For the same compound, the Ki at Caspase 1 is greater than 100 µM; on Caspase 3, greater than 10 µM. In addition, at Cathepsin L, the “Selectivity for Cat. S over Cat. L” value is “++ (++, >100)”.
For `O=C1C[C@H](NC(=O)[C@H](CC2CCCC2)NC(=O)N2CCOCC2)C(O)O1` (stereo partly drawn) [Example 2, (3S)-{3-Cyclopentyl-(2S)-[(morpholine-4-carbonyl)-amino]-propionylamino}-4-oxo-butyric acid], on Cathepsin B, the “Selectivity for Cat. S over Cat. B” value is “+++ (+++, >1000)”. The results for the Ki at Caspase 1 and on Caspase 3 were greater than 100 µM and greater than 10 µM, respectively. The “Selectivity for Cat. S over Cat. L” value at Cathepsin L is recorded as “++ (++, >100)”.
For the compound `O=C1C[C@H](NC(=O)O[C@@H](CC2CCCC2)Cn2cnc3cc(Cl)c(Cl)cc32)C(O)O1` (stereo partly drawn) [Example 5, (3S)-[(1S)-Cyclopentylmethyl-2-(5,6-dichloro-benzoimidazol-1-yl)-ethoxycarbonylamino]-4-oxo-butyric acid], the “Selectivity for Cat. S over Cat. B” value on Cathepsin B is reported as “+++ (+++, >1000)”. For the same compound, the Ki at Caspase 1 and at Caspase 3 was greater than 10 µM throughout. The “Selectivity for Cat. S over Cat. L” value at Cathepsin L is on record as “+ (+, >10)”.
Regarding `O=C1C[C@H](NC(=O)[C@H](CC2CCCCC2)NS(=O)(=O)c2cccc(OC(F)(F)F)c2)C(O)O1` (stereo partly drawn) [Example 7, (3S)-[3-Cyclohexyl-(2S)-(3-trifluoromethoxy-benzenesulfonylamino)-propionylamino]-4-oxo-butyric acid], the “Selectivity for Cat. S over Cat. B” value on Cathepsin B is “+++ (+++, >1000)”. Also, the Ki at Caspase 1 and at Caspase 3 was greater than 10 µM in each case. Further, the “Selectivity for Cat. S over Cat. L” value on Cathepsin L is “++ (++, >100)”.
For the compound `O=C1C[C@H](NC(=O)[C@H](CC2CCCC2)NS(=O)(=O)c2cccc(OC(F)(F)F)c2)C(O)O1` (stereo partly drawn) [Example 8, (3S)-[3-Cyclopentyl-(2S)-(3-trifluoromethoxy-benzenesulfonylamino)-propionylamino]-4-oxo-butyric acid], the “Selectivity for Cat. S over Cat. B” value at Cathepsin B is given as “+++ (+++, >1000)”. In addition, the Ki at Caspase 1 is greater than 100 µM; on Caspase 3, greater than 1 µM. For the same compound, at Cathepsin L, the “Selectivity for Cat. S over Cat. L” value is listed as “++ (++, >100)”.
As to `CC(C)(C)C[C@H](OC(=O)N[C@H]1CC(=O)OC1O)C(=O)N1CCOCC1` (stereo partly drawn) [Example 9, (3S)-[3,3-Dimethyl-(1S)-(morpholine-4-carbonyl)-butoxycarbonylamino]-4-oxo-butyric acid], the “Selectivity for Cat. S over Cat. B” value at Cathepsin B is reported as “++ (++, >100)”. Moreover, the Ki on Caspase 1 and on Caspase 3 was greater than 100 µM each time. The “Selectivity for Cat. S over Cat. L” value at Cathepsin L is “++ (++, >100)”.
As to `O=C1C[C@H](NC(=O)[C@H](CC2CCCCC2)OC(=O)N2CCOCC2)C(O)O1` (stereo partly drawn) [Example 3, (3S)-{3-cyclohexyl-(2S)-(morpholine-4-carbonyloxy)-propionylamino}-4-oxo-butyric acid], the “Selectivity for Cat. S over Cat. B” value at Cathepsin B is “+++ (+++, >1000)”. For the same compound, the inhibitory constant (Ki) at Caspase 1 and on Caspase 3 was greater than 10 µM throughout. The “Selectivity for Cat. S over Cat. L” value on Cathepsin L is given as “+ (+, >10)”.
For the compound `O=C1C[C@H](NC(=O)[C@H](CC2CCCC2)NC(=O)c2ccc(-c3cccc(F)c3)o2)C(O)O1` (stereo partly drawn) [Example 1, (3S)-(3-Cyclopentyl-(2S)-{[5-(3-fluoro-phenyl)-furan-2-carbonyl]-amino}-propionylamino)-4-oxo-butyric acid], the “Selectivity for Cat. S over Cat. B” value on Cathepsin B is listed as “+++ (+++, >1000)”. Moreover, the Ki on Caspase 1 and at Caspase 3 was greater than 1 µM in each case. The “Selectivity for Cat. S over Cat. L” value on Cathepsin L is listed as “++ (++, >100)”.
`O=C[C@H](CC(=O)O)NC(=O)[C@@H](CC(=O)N1CCOCC1)CC1CCCC1` [Example 4, (3S)-[(2R)-Cyclopentylmethyl-4-morpholin-4-yl-4-oxo-butyrylamino]-4-oxo-butyric acid]: the “Selectivity for Cat. S over Cat. B” value at Cathepsin B is “+++ (+++, >1000)”. Besides, the Ki on Caspase 1 and on Caspase 3 was greater than 10 µM throughout. The “Selectivity for Cat. S over Cat. L” value at Cathepsin L was “++ (++, >100)”.
